Experimental data: the supplement of paper PMC11061612

How the values were obtained:
U-698-M [1] = experiment: combination Emax (second highest fraction inhibited in the dose matrix, 72 h); higher = more inhibition; details: B-Cell Non-Hodgkin's Lymphoma
Summary of the method: (§1)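 After 24 hours at 37°C and 5% CO2 in 1536-well plates, cells in DMEM/F12 or RPMI plus 10% FBS received two-drug dose matrices for 72 hours. Viability came from CellTiter-Glo 2.0 luminescence and was scaled as inhibition, anchored at 0 by vehicle wells and at 1 by blank wells. Combination Emax is taken as the second-highest inhibition in the matrix, and Bliss excess as the observed combination effect less EA + EB − EA·EB, with EA and EB the single-agent effects.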

U-698-M [2] = experiment: Bliss excess, mean over the matrix (fraction); higher = more synergy; details: U-[…], B-Cell Non-Hodgkin's Lymphoma
Summary of the method: as §1

[3] = first compound max 1 µM, partner max 10 µM, 7x7
[4] = first compound max 1 µM, partner max 1 µM, 7x7
[5] = first compound max 1 µM, partner max 3 µM, 7x7, may be a limit of the assay
[6] = first compound max 1 µM, partner max 3 µM, 7x7
[7] = first compound max 1 µM, partner max 1 µM, 7x7, may be a limit of the assay
[8] = first compound max 1 µM, partner max 10 µM, 7x7, may be a limit of the assay
[9] = first compound max 1 µM, partner max 0.3 µM, 7x7
[10] = first compound max 10 µM, partner max 10 µM, 7x7
[11] = first compound max 10 µM, partner max 0.3 µM, 7x7
[12] = first compound max 10 µM, partner max 1 µM
[13] = first compound max 10 µM, partner max 1 µM, 7x7
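Throughout, for Bliss excess, mean over the matrix: after 72 h of two-drug dosing.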

## COc1nnc2ccc(N3CCC(c4ccc(OCCN5CCN(C)C(=O)[C@H]5C)cc4)CC3)nn12 [AZD5153] + C[C@@H]1COCCN1C2=NC(=NC(=C2)C3(CC3)[S@](=N)(=O)C)C4=C5C=CNC5=NC=C4 [AZD6738]
U-698-M [1]; [3]
  combination Emax: 0.912
U-698-M [2]; [3]
  Bliss excess: -0.0616

## COc1nnc2ccc(N3CCC(c4ccc(OCCN5CCN(C)C(=O)[C@H]5C)cc4)CC3)nn12 [AZD5153] + Cc1c2c(nn1C)CSCc1cc(n(C)n1)CSc1cc(c3ccccc3c1)OCCCc1c(C(=O)O)n(C)c3c-2c(Cl)ccc13 [AZD5991]
U-698-M [1]; [4]
  combination Emax: 0.998
U-698-M [2]; [4]
  Bliss excess: -0.0271

## COc1nnc2ccc(N3CCC(c4ccc(OCCN5CCN(C)C(=O)[C@H]5C)cc4)CC3)nn12 [AZD5153] + Cn1cnc2c(F)c(Nc3ccc(Br)cc3Cl)c(C(=O)NOCCO)cc21 [Selumetinib]
U-698-M [1]; [3]
  combination Emax: 0.622
U-698-M [2]; [3]
  Bliss excess: -0.0573

## Cc1c2c(nn1C)CSCc1cc(n(C)n1)CSc1cc(c3ccccc3c1)OCCCc1c(C(=O)O)n(C)c3c-2c(Cl)ccc13 [AZD5991] + C1CN(CCC1(C(=O)N[C@@H](CCO)C2=CC=C(C=C2)Cl)N)C3=NC=NC4=C3C=CN4 [Capivasertib]
U-698-M [1]; [5]
  combination Emax: 1
U-698-M [2]; [6]
  Bliss excess: -0.0016

## Cc1c2c(nn1C)CSCc1cc(n(C)n1)CSc1cc(c3ccccc3c1)OCCCc1c(C(=O)O)n(C)c3c-2c(Cl)ccc13 [AZD5991] + CC1(C)CCC(CN2CCN(c3ccc(C(=O)NS(=O)(=O)c4ccc(NCC5CCOCC5)c([N+](=O)[O-])c4)c(Oc4cnc5[nH]ccc5c4)c3)CC2)=C(c2ccc(Cl)cc2)C1 [Venetoclax]
U-698-M [1]; [7]
  combination Emax: 1
U-698-M [2]; [4]
  Bliss excess: -0.0069

## Cc1c2c(nn1C)CSCc1cc(n(C)n1)CSc1cc(c3ccccc3c1)OCCCc1c(C(=O)O)n(C)c3c-2c(Cl)ccc13 [AZD5991] + CC(=O)O[C@H]1C(=O)[C@@]2(C)[C@H]([C@H](OC(=O)c3ccccc3)[C@]3(O)C[C@H](OC(=O)[C@H](O)[C@@H](NC(=O)c4ccccc4)c4ccccc4)C(C)=C1C3(C)C)[C@]1(OC(C)=O)CO[C@@H]1C[C@@H]2O [Paclitaxel]
U-698-M [1]; [5]
  combination Emax: 1
U-698-M [2]; [6]
  Bliss excess: -0.0123

## Cc1c2c(nn1C)CSCc1cc(n(C)n1)CSc1cc(c3ccccc3c1)OCCCc1c(C(=O)O)n(C)c3c-2c(Cl)ccc13 [AZD5991] + CCN(CCO)CCCOc1ccc2c(Nc3cc(CC(=O)Nc4cccc(F)c4)[nH]n3)ncnc2c1 [AZD2811]
U-698-M [1]; [7]
  combination Emax: 1
U-698-M [2]; [4]
  Bliss excess: 0.0024

## Cc1c2c(nn1C)CSCc1cc(n(C)n1)CSc1cc(c3ccccc3c1)OCCCc1c(C(=O)O)n(C)c3c-2c(Cl)ccc13 [AZD5991] + CN(C)CCCOc1ccc(-c2ccc3ncc4c(c3c2)n(C2CCOCC2)c(=O)n4C)cn1 [AZD0156]
U-698-M [1]; [7]
  combination Emax: 1
U-698-M [2]; [4]
  Bliss excess: 0.0036

## Cc1c2c(nn1C)CSCc1cc(n(C)n1)CSc1cc(c3ccccc3c1)OCCCc1c(C(=O)O)n(C)c3c-2c(Cl)ccc13 [AZD5991] + CS(=O)(=O)CCNCc1ccc(-c2ccc3ncnc(Nc4ccc(OCc5cccc(F)c5)c(Cl)c4)c3c2)o1 [Lapatinib]
U-698-M [1]; [3]
  combination Emax: 0.992
U-698-M [2]; [3]
  Bliss excess: 0.0295

## Cc1c2c(nn1C)CSCc1cc(n(C)n1)CSc1cc(c3ccccc3c1)OCCCc1c(C(=O)O)n(C)c3c-2c(Cl)ccc13 [AZD5991] + C[C@@H]1COCCN1C2=NC(=NC(=C2)C3(CC3)[S@](=N)(=O)C)C4=C5C=CNC5=NC=C4 [AZD6738]
U-698-M [1]; [8]
  combination Emax: 1
U-698-M [2]; [3]
  Bliss excess: -0.0194

## Cc1c2c(nn1C)CSCc1cc(n(C)n1)CSc1cc(c3ccccc3c1)OCCCc1c(C(=O)O)n(C)c3c-2c(Cl)ccc13 [AZD5991] + C[C@@H](Nc1cc(F)cc(F)c1)c1cc(C(=O)N(C)C)cc2c(=O)cc(N3CCOCC3)oc12 [AZD8186]
U-698-M [1]; [5]
  combination Emax: 1
U-698-M [2]; [6]
  Bliss excess: -0.0258

## Cc1c2c(nn1C)CSCc1cc(n(C)n1)CSc1cc(c3ccccc3c1)OCCCc1c(C(=O)O)n(C)c3c-2c(Cl)ccc13 [AZD5991] + Cc1cc2ncnn2cc1Nc1ncc2c(n1)n(C1CCOCC1)c(=O)n2C [AZD7648]
U-698-M [1]; [8]
  combination Emax: 1
U-698-M [2]; [3]
  Bliss excess: 0.0183

## Cc1c2c(nn1C)CSCc1cc(n(C)n1)CSc1cc(c3ccccc3c1)OCCCc1c(C(=O)O)n(C)c3c-2c(Cl)ccc13 [AZD5991] + Cn1cnc2c(F)c(Nc3ccc(Br)cc3Cl)c(C(=O)NOCCO)cc21 [Selumetinib]
U-698-M [1]; [5]
  combination Emax: 1
U-698-M [2]; [6]
  Bliss excess: -0.0034

## Cc1c2c(nn1C)CSCc1cc(n(C)n1)CSc1cc(c3ccccc3c1)OCCCc1c(C(=O)O)n(C)c3c-2c(Cl)ccc13 [AZD5991] + Nc1ccn([C@@H]2O[C@H](CO)[C@@H](O)C2(F)F)c(=O)n1 [Gemcitabine]
U-698-M [1]; [9]
  combination Emax: 0.966
U-698-M [2]; [9]
  Bliss excess: 0.0211

## C[C@@H]1COCCN1c1cc(C2([S@](C)(=N)=O)CC2)nc(-c2ccnc3[nH]ccc23)n1 [AZD6738] + C1CC(C1)(C(=O)[O-])C(=O)[O-].N.N.[Pt+2] [Carboplatin]
U-698-M [1]; [10]
  combination Emax: 0.84
U-698-M [2]; [10]
  Bliss excess: -0.0625

## C[C@@H]1COCCN1c1cc(C2([S@](C)(=N)=O)CC2)nc(-c2ccnc3[nH]ccc23)n1 [AZD6738] + Nc1ccn([C@@H]2O[C@H](CO)[C@@H](O)C2(F)F)c(=O)n1 [Gemcitabine]
U-698-M [1]; [11]
  combination Emax: 0.871
U-698-M [2]; [11]
  Bliss excess: 0.0526

## C[C@@H]1COCCN1c1cc(C2([S@](C)(=N)=O)CC2)nc(-c2ccnc3[nH]ccc23)n1 [AZD6738] + O=C(c1cc(Cc2n[nH]c(=O)c3ccccc23)ccc1F)N1CCN(C(=O)C2CC2)CC1 [Olaparib]
U-698-M [1]; [10]
  combination Emax: 0.934
U-698-M [2]; [10]
  Bliss excess: -0.0503

## Cc1cc2ncnn2cc1Nc1ncc2c(n1)n(C1CCOCC1)c(=O)n2C [AZD7648] + C=CCn1c(=O)c2cnc(Nc3ccc(N4CCN(C)CC4)cc3)nc2n1-c1cccc(C(C)(C)O)n1 [AZD1775]
U-698-M [1]; [12]
  combination Emax: 0.971
U-698-M [2]; [12]
  Bliss excess: -0.0156

## Cc1cc2ncnn2cc1Nc1ncc2c(n1)n(C1CCOCC1)c(=O)n2C [AZD7648] + CCN(CCO)CCCOc1ccc2c(Nc3cc(CC(=O)Nc4cccc(F)c4)[nH]n3)ncnc2c1 [AZD2811]
U-698-M [1]; [13]
  combination Emax: 0.444
U-698-M [2]; [13]
  Bliss excess: 0.0631

## Cc1cc2ncnn2cc1Nc1ncc2c(n1)n(C1CCOCC1)c(=O)n2C [AZD7648] + CN(C)CCCOc1ccc(-c2ccc3ncc4c(c3c2)n(C2CCOCC2)c(=O)n4C)cn1 [AZD0156]
U-698-M [1]; [13]
  combination Emax: 0.488
U-698-M [2]; [13]
  Bliss excess: 0.0015

## Cc1cc2ncnn2cc1Nc1ncc2c(n1)n(C1CCOCC1)c(=O)n2C [AZD7648] + COc1cc([C@@H]2c3cc4c(cc3[C@@H](O[C@@H]3O[C@@H]5CO[C@@H](C)O[C@H]5[C@H](O)[C@H]3O)[C@H]3COC(=O)[C@H]23)OCO4)cc(OC)c1O [Etoposide]
U-698-M [1]; [10]
  combination Emax: 0.823
U-698-M [2]; [10]
  Bliss excess: 0.0866

## Cc1cc2ncnn2cc1Nc1ncc2c(n1)n(C1CCOCC1)c(=O)n2C [AZD7648] + C[C@@H]1COCCN1C2=NC(=NC(=C2)C3(CC3)[S@](=N)(=O)C)C4=C5C=CNC5=NC=C4 [AZD6738]
U-698-M [1]; [10]
  combination Emax: 0.939
U-698-M [2]; [10]
  Bliss excess: -0.0006

## Cc1cc2ncnn2cc1Nc1ncc2c(n1)n(C1CCOCC1)c(=O)n2C [AZD7648] + O=C(c1cc(Cc2n[nH]c(=O)c3ccccc23)ccc1F)N1CCN(C(=O)C2CC2)CC1 [Olaparib]
U-698-M [1]; [10]
  combination Emax: 0.343
U-698-M [2]; [10]
  Bliss excess: -0.0409

## C[C@@H](Nc1cc(F)cc(F)c1)c1cc(C(=O)N(C)C)cc2c(=O)cc(N3CCOCC3)oc12 [AZD8186] + C1CN(CCC1(C(=O)N[C@@H](CCO)C2=CC=C(C=C2)Cl)N)C3=NC=NC4=C3C=CN4 [AZD5363]
U-698-M [1]; [10]
  combination Emax: 0.349
U-698-M [2]; [10]
  Bliss excess: -0.0592

## C[C@@H](Nc1cc(F)cc(F)c1)c1cc(C(=O)N(C)C)cc2c(=O)cc(N3CCOCC3)oc12 [AZD8186] + CC(=O)c1c(C)c2cnc(Nc3ccc(N4CCNCC4)cn3)nc2n(C2CCCC2)c1=O [Palbociclib]
U-698-M [1]; [10]
  combination Emax: 0.499
U-698-M [2]; [10]
  Bliss excess: -0.0019

## NC1(C(=O)N[C@@H](CCO)c2ccc(Cl)cc2)CCN(c2ncnc3[nH]ccc23)CC1 [Capivasertib] + CC(=O)c1c(C)c2cnc(Nc3ccc(N4CCNCC4)cn3)nc2n(C2CCCC2)c1=O [Palbociclib]
U-698-M [1]; [10]
  combination Emax: 0.532
U-698-M [2]; [10]
  Bliss excess: 0.0018

## NC1(C(=O)N[C@@H](CCO)c2ccc(Cl)cc2)CCN(c2ncnc3[nH]ccc23)CC1 [Capivasertib] + CC(C)n1c(=O)n(C)c2cnc3cc(F)c(-c4ccc(OCCCN5CCCCC5)nc4)cc3c21 [AZD1390]
U-698-M [1]; [11]
  combination Emax: 0.507
U-698-M [2]; [11]
  Bliss excess: 0.0024

## NC1(C(=O)N[C@@H](CCO)c2ccc(Cl)cc2)CCN(c2ncnc3[nH]ccc23)CC1 [Capivasertib] + CCN(CCO)CCCOc1ccc2c(Nc3cc(CC(=O)Nc4cccc(F)c4)[nH]n3)ncnc2c1 [AZD2811]
U-698-M [1]; [13]
  combination Emax: 0.5
U-698-M [2]; [13]
  Bliss excess: -0.0021

## NC1(C(=O)N[C@@H](CCO)c2ccc(Cl)cc2)CCN(c2ncnc3[nH]ccc23)CC1 [Capivasertib] + COc1nnc2ccc(N3CCC(c4ccc(OCCN5CCN(C)C(=O)[C@H]5C)cc4)CC3)nn12 [AZD5153]
U-698-M [1]; [13]
  combination Emax: 0.768
U-698-M [2]; [13]
  Bliss excess: -0.0646

## NC1(C(=O)N[C@@H](CCO)c2ccc(Cl)cc2)CCN(c2ncnc3[nH]ccc23)CC1 [Capivasertib] + C[C@@H]1COCCN1C2=NC(=NC(=C2)C3(CC3)[S@](=N)(=O)C)C4=C5C=CNC5=NC=C4 [AZD6738]
U-698-M [1]; [10]
  combination Emax: 0.909
U-698-M [2]; [10]
  Bliss excess: -0.0275

## NC1(C(=O)N[C@@H](CCO)c2ccc(Cl)cc2)CCN(c2ncnc3[nH]ccc23)CC1 [Capivasertib] + Cn1cnc2c(F)c(Nc3ccc(Br)cc3Cl)c(C(=O)NOCCO)cc21 [Selumetinib]
U-698-M [1]; [10]
  combination Emax: 0.45
U-698-M [2]; [10]
  Bliss excess: -0.0253
